Source: US12391751B2, “Antibody against advanced glycation end products and use thereof” (Bloom Technology Corporation, priority 2018, dated 2025)

How the values were obtained:
PB-1 antibody = assay: Competitive ELISA of GAL691 and known AGEs against PB-1 (Example 31); type: binding, mouse; conditions: immobilized A-peak-BSA; competitor 0.04 to 2.5 mM; PB-1 0.1 μg/mL
Experimental: Competitive ELISA was conducted using the reagents described in Example 13. A solution of A-peak-BSA prepared into 1 μg/mL in a coating solution was added at 100 μL/well to a 96-well microtiter plate (Costar) and incubated overnight at 4° C.
(§1) Each well after the immobilization treatment was washed three times with a washing solution (300 μL), and a blocking solution (200 μL) was added thereto and left at room temperature for 1 hour.
GAL691 (prepared in Example 16), GLAP (prepared in Example 12), Lys-hydroxy-triosidine (prepared in Example 17), GA-pyridine (prepared in Example 28), GOLD (prepared in Example 29), and Z-Lys were each dissolved in a phosphate buffer solution (0.2 M, pH 7.4) to prepare a 100 mM solution. Then, a 10 mM solution was prepared by dilution 10-fold with a diluting solution containing BSA (1 mg/mL, FUJIFILM Wako Pure Chemical Corp.). Sample solutions of 4-fold dilution series of 0.04, 0.16, 0.63, and 2.5 mM were further prepared with a diluting solution containing a 10% (v/v) phosphate buffer solution and 1 mg/mL BSA. Ten-fold dilutions of a phosphate buffer solution with a diluting solution containing 1 mg/mL BSA were prepared as blank solutions containing no sample in the same way as above. A 0.1 μg/mL solution of the PB-1 antibody was prepared with a diluting solution containing 1 mg/mL BSA.
Each well treated with the blocking solution was washed three times with a washing solution (300 μL), and the sample solutions of 4-fold dilution series (50 μL each) and the PB-1 antibody dilution solution (50 μL) were added thereto, stirred with a plate mixer for 2 minutes, and then incubated at room temperature for 1 hour.
After the competitive reaction, each well was washed three times with a washing solution (300 μL), and peroxidase-labeled anti-mouse IgG (H+L) polyclonal antibody, F(ab′)2 fragment (Kirkegaard & Perry Laboratories, Inc.) diluted into 0.05 μg/mL with a diluting solution containing 1 mg/mL BSA was added at 100 μL/well and left standing at room temperature for 1 hour.
After washing three times with a washing solution (300 μL), a substrate solution (ELISA POD substrate TMB kit (Popular), Nacalai Tesque, Inc.) was added at 100 μL/well and incubated at room temperature for 10 minutes under light shielding. Then, color development was terminated by the addition of 2 N sulfuric acid (50 μL).
Absorbance was measured at a dominant wavelength of 450 nm and a sub-wavelength of 650 nm with a microplate reader (Cytation 5, BioTek Instrument Inc.), and the absorbance at the sub-wavelength was subtracted from the absorbance at the dominant wavelength. Change in the absorbance of GAL691, GLAP, Lys-hydroxy-triosidine, GA-pyridine, GOLD, and Z-Lys was indicated as relative values to the absorbance of the blank solution.

[1] = system: POD-labeled novel monoclonal antibody (SJ-5); assay: Competitive ELISA of GAL13, GLAP, Z-Lys-OH against SJ-5 (Example 13); type: binding, mouse; conditions: immobilized Glycer-AGEs-BSA; competitor 0.0063 to 2 mg/mL
Experimental: A solution of BSA containing AGEs derived from glyceraldehyde (stock solution: 10 mg/mL PBS solution) prepared into 1 μg/mL in a coating solution was added at 100 μL/well to a 96-well microtiter plate (COSTAR) and incubated overnight at 4° C.
as §1
GAL13 (prepared in Example 2), GLAP (prepared in Example 12), and Z-Lys-OH (Tokyo Chemical Industry Co., Ltd.) were each dissolved in a phosphate buffer solution (0.2 M, pH 7.4) to prepare a 20 mg/mL solution. Sample solutions of 2-fold dilution series from 0.0063 to 2 mg/mL (6 points) were further prepared by dilution with a diluting solution. A POD-labeled novel monoclonal antibody (SJ-5) solution was diluted 16,000-fold with a diluting solution containing BSA (1 mg/mL, FUJIFILM Wako Pure Chemical Corp.) to prepare a POD-labeled SJ-5 antibody dilution solution. […]
Absorbance was measured at a dominant wavelength of 450 nm and a sub-wavelength of 650 nm with a microplate reader (Cytation 5, BioTek Instrument Inc.), and the absorbance at the sub-wavelength was subtracted from the absorbance at the dominant wavelength.

HUVEC = assay: Neutralization test of vascular endothelial cell lumen formation inhibition using PB-1 (Example 35); type: cell-based, human; conditions: Matrigel matrix; 8-hour culture
Experimental: Matrigel matrix was prepared by the same operation as in Example 14.
10 μL of Glycer-AGEs-BSA (10 mg/mL) prepared in Example 1, 10 μL of phosphate-buffered saline (PBS, FUJIFILM Wako Pure Chemical Corp.), and 90 μL of the PB-1 antibody (10 mg/mL) or a control antibody (10 mg/mL) were added to a 1.5 mL tube (Watson) and left standing at room temperature for 10 minutes. Then, a supernatant was recovered by centrifugation at 14000 rpm for 15 minutes using a centrifuge (Thermo Fisher Scientific Inc.).
(3) A lumen formation inhibition test was conducted by the same operation as in Example 14. As shown in the drawing, HUVEC was confirmed to form a lumen in the Matrigel matrix in the control BSA addition group. […] Furthermore, this inhibition of lumen formation was neutralized by the reaction solution of PB-1.

α-SMA = assay: Endothelial-to-mesenchymal transition inhibition test, real-time PCR (Example 15); type: cell-based, human; conditions: HUVEC; β-actin internal standard; 8 hours
Experimental: (§2) 10 μL of Glycer-AGEs-BSA (10 mg/mL) prepared in Example 1, PBS, and 90 μL of SJ-5 (10 mg/mL) or a control antibody (10 mg/mL) were added to a 1.5 mL tube (Watson). Alternatively, 90 μL of a PBS solution of control BSA (10 mg/mL) was added. These solutions were left standing at room temperature for 10 minutes. Then, a supernatant was recovered by centrifugation at 14000 rpm for 15 minutes using a centrifuge (Thermo Fisher Scientific Inc.).
(§3) HUVEC was cultured in a 10 cm dish using 10 mL of a medium for HUVEC.
(§4) The cultured HUVEC was washed with 10 mL of PBS. Then, 1 mL of trypsin-EDTA was added thereto and left standing at room temperature for 3 minutes. HUVEC thus left standing was confirmed to be detached from the dish, and trypsin-EDTA was neutralized by the addition of 10 mL of a medium for HUVEC. After the neutralization, the whole amount was transferred to a 50 mL tube and centrifuged at 1500 rpm for 3 minutes using a centrifuge.
(§5) After the centrifugation, the supernatant was discarded, and precipitated cells were resuspended by the addition of 1 mL of a medium for HUVEC. A 10 μL aliquot from the resuspension was mixed with 10 μL of Trypan Blue, and 10 μL thereof was added to a counting chamber. Then, the number of live cells was counted in Auto Cell Counter EVE. The cell suspension was diluted into 2.5×10^5 cells/mL with a medium for HUVEC and inoculated at 400 μL/well to the Matrigel prepared in (1). After the inoculation, each reaction solution prepared in (2) was added at 100 μL/well, followed by culture for 8 hours in a CO2 incubator.
(§6) Each well was washed three times with 1 mL of PBS, and Cell Recovery Solution (Corning Inc.) was added at 500 μL/well.
(§7) The cells and the Matrigel matrix were scraped off using Blue Chip (Watson), recovered into a 1.5 mL tube, and transferred to the 1.5 mL tube after rinsing of each well again with 500 μL of Cell Recovery Solution. The 1.5 mL tube was mixed by inversion five times and then left standing on ice for 1 hour to confirm that the Matrigel matrix was completely degraded. After the Matrigel matrix degradation, a supernatant was discarded by centrifugation at 800 rpm at 4° C. Precipitated cells were gently suspended in 1 mL of ice-cooled PBS and centrifuged at 800 rpm at 4° C. to discard a supernatant. Precipitated cells were gently suspended again in 1 mL of ice-cooled PBS and centrifuged at 800 rpm at 4° C.
(§8) 125 μL of CellAmp Washing Buffer attached to the kit was added to the cells precipitated by centrifugation, and mixed. […]
(§9) After the addition, real-time PCR was performed with QuantStudio™ 12K Flex real-time PCR system (Thermo Fisher Scientific Inc.) to quantify gene expression levels. […]

CD31 = assay: as above; type: cell-based, human; conditions: HUVEC; β-actin internal standard; 8 hours
Experimental: as §2, §3, §4, §5, §6, §7, §8, §9

[2] = system: HUVEC (human umbilical vein endothelial cells); assay: Neutralization test of vascular endothelial cell lumen formation inhibition (Example 14); type: cell-based; conditions: Matrigel matrix; 8 hours culture
Experimental: Matrigel matrix (Corning Inc.) was placed in a refrigerator and thawed overnight. The thawed Matrigel matrix was added at 300 μL/well to a 12-well plate (Corning Inc.) and hardened by still standing at 37° C. for 1 hour in a CO2 incubator (ESPEC Corp.).
10 μL of Glycer-AGEs-BSA (10 mg/mL) prepared in Example 1 or 10 μL of control BSA (10 mg/mL), phosphate-buffered saline (PBS, FUJIFILM Wako Pure Chemical Corp.), and 90 μL of SJ-5 (10 mg/mL) or a control antibody (10 mg/mL) were added to a 1.5 mL tube (Watson) and left standing at room temperature for 10 minutes. Then, a supernatant was recovered by centrifugation at 14000 rpm for 15 minutes using a centrifuge (Thermo Fisher Scientific Inc.).
HUVEC (human umbilical vein endothelial cells, National Institutes of Biomedical Innovation, Health and Nutrition, JCRB cell bank) was cultured in a 10 cm dish (Corning Inc.) using 10 mL of a medium for HUVEC (KAC Co., Ltd.).
The cultured HUVEC was washed with 10 mL of PBS. Then, 1 mL of trypsin-EDTA (FUJIFILM Wako Pure Chemical Corp.) was added thereto and left standing at room temperature for 3 minutes. […]
After the centrifugation, the supernatant was discarded, and precipitated cells were resuspended by the addition of 1 mL of a medium for HUVEC. […] Then, the number of live cells was counted in Auto Cell Counter EVE (NanoEnTek Inc.). […]

| Molecule | change in absorbance relative to blank (competition for PB-1 binding) (PB-1 antibody) | change in absorbance (competition for SJ-5 binding) [1] | further results |
| --- | --- | --- | --- |
| CC(=O)NC(CCCC[n+]1ccc(CO)c(O)c1)C(=O)O (stereo not shown) [GA-pyridine] | no reduction in absorbance was observed | – | – |
| CC(=O)N[C@@H](CCCC[n+]1cc(O)cc(CO)c1)C(=O)O [GLAP] | no reduction in absorbance was observed | reduction in absorbance was observed for neither | – |
| CC(=O)NC(CCCCn1cc[n+](CCCCC(NC(C)=O)C(=O)O)c1)C(=O)O (stereo not shown) [GOLD] | no reduction in absorbance was observed | – | – |
| NCCCC[C@H](NC(=O)OCc1ccccc1)C(=O)O [Z-Lys-OH, N^α-Carbobenzoxy-L-lysine] | no reduction in absorbance was observed | reduction in absorbance was observed for neither | – |
| Glycer-AGEs-BSA: bovine serum albumin containing AGEs derived from glyceraldehyde [reference compound] | – | – | effect on lumen formation of HUVEC (HUVEC): inhibited lumen formation; expression level of α-SMA (α-SMA): increased; expression level of CD31 (CD31): decreased; effect on lumen formation of HUVEC [2]: inhibited lumen formation |
